According to US20240308992A1 (Biopolar Youtang(Guangdong) Pharmaceutical Co., Ltd., priority 2021, published 2024):

target: T1, Drak2 (Homo sapiens, UniProt O94768); experiment: Drak2 activity test, ADP-Glo kinase assay (Promega); format: biochemical; conditions: inhibition of Drak2 kinase activity, 2 h room temperature, activity range classes, read-out: IC50_Drak2
T1 sequence (O94768 1-372): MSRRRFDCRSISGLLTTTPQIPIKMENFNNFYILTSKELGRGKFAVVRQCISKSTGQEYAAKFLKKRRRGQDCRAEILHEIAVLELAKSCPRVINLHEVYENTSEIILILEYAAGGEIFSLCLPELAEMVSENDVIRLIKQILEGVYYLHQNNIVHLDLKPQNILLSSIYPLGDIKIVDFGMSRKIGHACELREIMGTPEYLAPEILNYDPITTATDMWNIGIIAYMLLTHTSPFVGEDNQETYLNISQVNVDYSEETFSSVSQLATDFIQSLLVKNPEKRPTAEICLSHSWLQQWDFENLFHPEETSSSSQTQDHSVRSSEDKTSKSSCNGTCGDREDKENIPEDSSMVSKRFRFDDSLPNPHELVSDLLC

Row | Compound | IC50
1 | COc1cc(-c2cncc(-c3cc(NC(=O)CC4CCCC4)cs3)n2)ccc1C(=O)N1CCC(OC)CC1 [Example B54, 2-cyclopentyl-N-(5-(6-(3-methoxy-4-(4-methoxypiperidine-1-carbonyl)phenyl)pyrazin-2-yl)thiophen-3-yl)acetamide] | 11 to 100 nM
2 | CCCCC(=O)Nc1csc(-c2cncc(-c3ccc(C(=O)N(C)CCN(C)C)c(OC)c3)n2)c1 [Example B55, N-(2-(dimethylamino)ethyl)-2-methoxy-N-methyl-4-(6-(4-pentanamidothiophen-2-yl)pyrazin-2-yl)benzamide] | 11 to 100 nM
3 | COc1cc(-c2cncc(-c3cc(NC(=O)CC4CC4)cs3)n2)ccc1C(=O)N(C)CCN(C)C [Example B56, 4-(6-(4-(2-cyclopropylacetamido)thiophen-2-yl)pyrazin-2-yl)-N-(2-(dimethylamino)ethyl)-2-methoxy-N-methylbenzamide] | < 10 nM
4 | COc1cc(-c2cncc(-c3cc(NC(=O)CC4CCC4)cs3)n2)ccc1C(=O)N(C)CCN(C)C [Example B57, 4-(6-(4-(2-cyclobutylacetamido)thiophen-2-yl)pyrazin-2-yl)-N-(2-(dimethylamino)ethyl)-2-methoxy-N-methylbenzamide] | 11 to 100 nM
5 | COc1cc(-c2cncc(-c3cc(NC(=O)CC4CCCC4)cs3)n2)ccc1C(=O)N(C)CCN(C)C [Example B58, 4-(6-(4-(2-cyclopentylacetamido)thiophen-2-yl)pyrazin-2-yl)-N-(2-(dimethylamino)ethyl)-2-methoxy-N-methylbenzamide] | 11 to 100 nM
6 | CCCCC(=O)Nc1csc(-c2cncc(-c3ccc(C(=O)N(C)C4CCN(C)CC4)c(OC)c3)n2)c1 [Example B59, 2-methoxy-N-methyl-N-(1-methylpiperidin-4-yl)-4-(6-(4-pentanamidothiophen-2-yl)pyrazin-2-yl)benzamide] | < 10 nM
7 | COc1cc(-c2cncc(-c3cc(NC(=O)CC4CC4)cs3)n2)ccc1C(=O)N(C)C1CCN(C)CC1 [Example B60, 4-(6-(4-(2-cyclopropylacetamido)thiophen-2-yl)pyrazin-2-yl)-2-methoxy-N-methyl-N-(1-methylpiperidin-4-yl)benzamide] | 11 to 100 nM
8 | COc1cc(-c2cncc(-c3cc(NC(=O)CC4CCCC4)cs3)n2)ccc1C(=O)N(C)C1CCN(C)CC1 [Example B61, 4-(6-(4-(2-cyclopentylacetamido)thiophen-2-yl)pyrazin-2-yl)-2-methoxy-N-methyl-N-(1-methylpiperidin-4-yl)benzamide] | 11 to 100 nM
9 | COc1cc(-c2cncc(-c3cc(NC(=O)CC4CCC4)cs3)n2)ccc1C(=O)Nc1nnco1 [Example B62, 4-(6-(4-(2-cyclobutylacetamido)thiophen-2-yl)pyrazin-2-yl)-2-methoxy-N-(1,3,4-oxadiazol-2-yl)benzamide] | 11 to 100 nM
10 | COc1cc(-c2cncc(-c3cc(NC(=O)CC4CCC4)cs3)n2)ccc1C(=O)N(C)C1CCN(C)CC1 [Example B63, 4-(6-(4-(2-cyclobutylacetamido)thiophen-2-yl)pyrazin-2-yl)-2-methoxy-N-methyl-N-(1-methylpiperidin-4-yl)benzamide] | < 10 nM
11 | COc1cc(-c2cncc(-c3cc(NC(=O)CC4CCCC4)cs3)n2)ccc1C(=O)Nc1nnco1 [Example B64, 4-(6-(4-(2-cyclopentylacetamido)thiophen-2-yl)pyrazin-2-yl)-2-methoxy-N-(1,3,4-oxadiazol-2-yl)benzamide] | 11 to 100 nM
12 | CCCCC(=O)Nc1csc(-c2nccc(-c3ccc(C(=O)N(C)C4CCN(C)CC4)c(OC)c3)n2)c1 [Example B66, 2-methoxy-N-methyl-N-(1-methylpiperidin-4-yl)-4-(2-(4-pentanamidothiophen-2-yl)pyrimidin-4-yl)benzamide] | 1000 to 10000 nM
13 | CCCCC(=O)Nc1csc(-c2cncc(-c3ccc(C(=O)N(C)C4CCN(C(C)C)CC4)c(OC)c3)n2)c1 [Example B68, N-(1-isopropylpiperidin-4-yl)-2-methoxy-N-methyl-4-(6-(4-pentanamidothiophen-2-yl)pyrazin-2-yl)benzamide] | < 10 nM
14 | CCCCC(=O)Nc1csc(-c2cncc(-c3ccc(C(=O)N(C)C4CCN(C5CC5)CC4)c(OC)c3)n2)c1 [Example B69, N-(1-cyclopropylpiperidin-4-yl)-2-methoxy-N-methyl-4-(6-(4-pentanamidothiophen-2-yl)pyrazin-2-yl)benzamide] | < 10 nM
15 | CCCCC(=O)Nc1csc(-c2cncc(-c3ccc(C(=O)N(C)C4CCN(CC(F)(F)F)CC4)c(OC)c3)n2)c1 [Example B70, 2-methoxy-N-methyl-4-(6-(4-pentanamidothiophen-2-yl)pyrazin-2-yl)-N-(1-(2,2,2-trifluoroethyl)piperidin-4-yl)benzamide] | 101 to 1000 nM
16 | CCCCC(=O)Nc1csc(-c2cncc(-c3ccc(C(=O)N(C)C4CCN(c5cnn(C)c5)CC4)c(OC)c3)n2)c1 [Example B71, 2-methoxy-N-methyl-N-(1-(1-methyl-1H-pyrazol-4-yl)piperidin-4-yl)-4-(6-(4-pentanamidothiophen-2-yl)pyrazin-2-yl)benzamide] | 11 to 100 nM
17 | CCCCC(=O)Nc1csc(-c2cncc(-c3ccc(C(=O)N(C)C4CCN(c5ncccn5)CC4)c(OC)c3)n2)c1 [Example B72, 2-methoxy-N-methyl-4-(6-(4-pentanamidothiophen-2-yl)pyrazin-2-yl)-N-(1-(pyrimidin-2-yl)piperidin-4-yl)benzamide] | 101 to 1000 nM
18 | CCCCC(=O)Nc1csc(-c2cncc(-c3ccc(C(=O)N(C)C4CCN(C)CC4)c(F)c3)n2)c1 [Example B73, 2-fluoro-N-methyl-N-(1-methylpiperidin-4-yl)-4-(6-(4-pentanamidothiophen-2-yl)pyrazin-2-yl)benzamide] | 101 to 1000 nM
19 | CCCCC(=O)Nc1csc(-c2cncc(-c3cc(F)c(C(=O)N(C)C4CCN(C)CC4)c(F)c3)n2)c1 [Example B74, 2,6-difluoro-N-methyl-N-(1-methylpiperidin-4-yl)-4-(6-(4-pentanamidothiophen-2-yl)pyrazin-2-yl)benzamide] | 101 to 1000 nM
20 | CCCCC(=O)Nc1csc(-c2cccc(-c3ccc(C(=O)N(C4CC4)C4CCN(C)CC4)c(OC)c3)n2)c1 [Example B75, N-cyclopropyl-2-methoxy-N-(1-methylpiperidin-4-yl)-4-(6-(4-pentanamidothiophen-2-yl)pyridin-2-yl)benzamide] | > 10000 nM
21 | CCCCC(=O)Nc1csc(-c2cncc(-c3ccc(C(=O)N(C4CC4)C4CCN(C)CC4)c(OC)c3)n2)c1 [Example B76, N-cyclopropyl-2-methoxy-N-(1-methylpiperidin-4-yl)-4-(6-(4-pentanamidothiophen-2-yl)pyrazin-2-yl)benzamide] | 11 to 100 nM
22 | CCCCC(=O)Nc1csc(-c2cncc(-c3ccc(C(=O)N(C4CC4)C4CCN(C5CC5)CC4)c(OC)c3)n2)c1 [Example B78, N-cyclopropyl-N-(1-cyclopropylpiperidin-4-yl)-2-methoxy-4-(6-(4-pentanamidothiophen-2-yl)pyrazin-2-yl)benzamide] | 11 to 100 nM
23 | COc1cc(-c2cncc(-c3cc(NC(=O)CC4CC4)cs3)n2)ccc1C(=O)N(C)OC [Example B79, 4-(6-(4-(2-cyclopropylacetamido)thiophen-2-yl)pyrazin-2-yl)-N,2-dimethoxy-N-methylbenzamide] | 11 to 100 nM
24 | COc1cc(-c2cncc(-c3cc(NC(=O)CC45CC(C4)C5)cs3)n2)ccc1C(=O)Nc1nnco1 [Example B80, 4-(6-(4-(2-(bicyclo[1.1.1]pentan-1-yl)acetamido)thiophen-2-yl)pyrazin-2-yl)-2-methoxy-N-(1,3,4-oxadiazol-2-yl)benzamide] | 11 to 100 nM
25 | COc1cc(-c2cncc(-c3cc(NC(=O)CC4CCC4)cs3)n2)ccc1C(=O)N(C)OC [Example B81, 4-(6-(4-(2-cyclobutylacetamido)thiophen-2-yl)pyrazin-2-yl)-N,2-dimethoxy-N-methylbenzamide] | 11 to 100 nM
26 | COc1cc(-c2cncc(-c3cc(NC(=O)CC4(C)COC4)cs3)n2)ccc1C(=O)N(C)C1CCN(C)CC1 [Example B82, 2-methoxy-N-methyl-4-(6-(4-(2-(3-methyloxetan-3-yl)acetamido)thiophen-2-yl)pyrazin-2-yl)-N-(1-methylpiperidin-4-yl)benzamide] | 101 to 1000 nM
27 | COc1cc(-c2cncc(-c3cc(NC(=O)CC4CC(F)(F)C4)cs3)n2)ccc1C(=O)N(C)C1CCN(C)CC1 [Example B83, 4-(6-(4-(2-(3,3-difluorocyclobutyl)acetamido)thiophen-2-yl)pyrazin-2-yl)-2-methoxy-N-methyl-N-(1-methylpiperidin-4-yl)benzamide] | 11 to 100 nM
28 | COc1cc(-c2cncc(-c3cc(NC(=O)C4CC45CCC5)cs3)n2)ccc1C(=O)N(C)C1CCN(C)CC1 (stereo not drawn) [Example B84, N-(5-(6-(3-methoxy-4-(methyl(1-methylpiperidin-4-yl)carbamoyl)phenyl)pyrazin-2-yl)thiophen-3-yl)spiro[2.3]hexane-1-carboxamide] | 11 to 100 nM
29 | COc1cc(-c2cncc(-c3cc(NC(=O)CC4(c5ccc(C(F)(F)F)cc5)CCC4)cs3)n2)ccc1C(=O)N(C)C1CCN(C)CC1 [Example B85, 2-methoxy-N-methyl-N-(1-methylpiperidin-4-yl)-4-(6-(4-(2-(1-(4-(trifluoromethyl)phenyl)cyclobutyl)acetamido)thiophen-2-yl)pyrazin-2-yl)benzamide] | 101 to 1000 nM
30 | CCC1(CC(=O)Nc2csc(-c3cncc(-c4ccc(C(=O)N(C)C5CCN(C)CC5)c(OC)c4)n3)c2)CCC1 [Example B86, 4-(6-(4-(2-(1-ethylcyclobutyl)acetamido)thiophen-2-yl)pyrazin-2-yl)-2-methoxy-N-methyl-N-(1-methylpiperidin-4-yl)benzamide] | 101 to 1000 nM
